For 24 compounds, Activity and EC50 results are on record in ChEMBL document CHEMBL1153626, “Rapid assessment of a novel series of selective CB(2) agonists using parallel synthesis protocols: A Lipophilic Efficiency (LipE) analysis” (Bioorg Med Chem Lett, 2009).

SMILES strings stand for the structures.

Common to all, as to assay type: functional, cell-based
The target in test [1] is T1, Cannabinoid receptor 1 (Homo sapiens, UniProt P21554). The test can be described thus: Agonist activity at human recombinant CB1 receptor expressed in CHO cells at 10 uM by FLIPR assay.
T1 sequence (P21554 whole entry): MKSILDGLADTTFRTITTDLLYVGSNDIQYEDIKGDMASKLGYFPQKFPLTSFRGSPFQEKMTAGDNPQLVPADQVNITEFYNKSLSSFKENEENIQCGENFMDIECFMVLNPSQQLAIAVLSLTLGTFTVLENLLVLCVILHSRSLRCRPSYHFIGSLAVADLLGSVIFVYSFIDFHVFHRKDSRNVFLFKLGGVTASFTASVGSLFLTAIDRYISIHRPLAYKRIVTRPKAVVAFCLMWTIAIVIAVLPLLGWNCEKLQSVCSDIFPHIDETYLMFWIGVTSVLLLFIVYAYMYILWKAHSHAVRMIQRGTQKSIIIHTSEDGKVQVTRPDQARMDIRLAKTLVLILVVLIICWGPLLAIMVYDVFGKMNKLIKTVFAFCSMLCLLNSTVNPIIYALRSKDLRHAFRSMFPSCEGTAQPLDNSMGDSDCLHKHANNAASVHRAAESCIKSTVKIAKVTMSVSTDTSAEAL
Test [2] deals with Cannabinoid receptor 2 (Homo sapiens, UniProt P34972). The test can be described thus: Agonist activity at human recombinant CB2 receptor expressed in CHO cells assessed as inhibition forskolin-induced cAMP release.
Chain of Cannabinoid receptor 2 (P34972 whole entry): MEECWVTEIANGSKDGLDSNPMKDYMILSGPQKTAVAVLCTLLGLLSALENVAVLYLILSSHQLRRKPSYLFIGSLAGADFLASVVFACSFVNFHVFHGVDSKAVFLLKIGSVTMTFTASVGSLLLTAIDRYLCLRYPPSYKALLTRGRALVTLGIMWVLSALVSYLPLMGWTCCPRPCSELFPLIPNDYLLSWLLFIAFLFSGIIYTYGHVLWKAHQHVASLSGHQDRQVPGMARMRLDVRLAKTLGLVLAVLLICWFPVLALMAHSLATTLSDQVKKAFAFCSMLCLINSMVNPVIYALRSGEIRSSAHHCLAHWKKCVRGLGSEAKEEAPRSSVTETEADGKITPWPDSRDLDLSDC
Test [3] addresses T1, Cannabinoid receptor 1. The test can be described thus: Agonist activity at human recombinant CB1 receptor expressed in CHO cells by FLIPR assay.

On to `CC(C)(C)Cc1nc2c(n1CC1CC1)CCN(S(=O)(=O)c1ccccc1)C2`, for which the Activity in test [1] is 9%. Besides, the EC50 in test [2] was 9.1 nM.
Turning to `CC(C)(C)c1nc2c(n1CC1CC1)CCN(S(=O)(=O)c1ccccc1)C2`, the Activity in test [1] turned out to be 10%. Moreover, the 50% effective concentration (EC50) in test [2] came out at 7.9 nM.
For `CCCCCN1CCc2c(nc(CC(C)(C)C)n2CC2CC2)C1`, the EC50 in test [2] came out at 3000 nM.
On to `CC(C)(C)c1nc2c(n1CC1CC1)CCN(S(=O)(=O)Cc1ccccc1)C2`, for which, in test [1], the Activity stood at 13%. Besides, the EC50 in test [2] came out at 21.8 nM.
Consider `Cc1noc(C)c1S(=O)(=O)N1CCc2c(nc(C(C)(C)C)n2CC2CC2)C1`, for which, in test [1], the Activity worked out at 66%. For the same compound, the EC50 in test [2] was found to be 5.1 nM; in test [3] it was 7500 nM.
The matching figures for `Cc1nocc1S(=O)(=O)N1CCc2c(nc(C(C)(C)C)n2CC2CC2)C1`: 38%, 55.4 nM and 18000 nM.
With `CC(C)(C)c1nc2c(n1CC1CC1)CCN(S(C)(=O)=O)C2`, the Activity in test [1] came to 10%. The EC50 in test [2] is 403 nM.
As for `CCCCC(=O)N1CCc2c(nc(CC(C)(C)C)n2CC2CC2)C1`, the EC50 in test [2] is 1020 nM.
Regarding `COCCS(=O)(=O)N1CCc2c(nc(CC(C)(C)C)n2CC2CC2)C1`, the Activity in test [1] was found to be 37%. The EC50 in test [2] was 21.5 nM; in test [3], 14000 nM.
In the case of `CCCOC(=O)N1CCc2c(nc(CC(C)(C)C)n2CC2CC2)C1`, the EC50 in test [2] came to 560 nM.
Still for that read-out and setting: in the case of `CC(C)(C)C(=O)N1CCc2c(nc(C(C)(C)C)n2CC2CC2)C1` it was 320 nM.
In the case of `Cc1noc(C)c1S(=O)(=O)N1CCc2c(nc(CC(C)(C)C)n2CC2CC2)C1`, the Activity in test [1] was 24%. Moreover, the EC50 in test [2] came out at 7 nM.
The matching figures for `CC(C)(C)Cc1nc2c(n1CC1CC1)CCN(S(=O)(=O)c1cccnc1)C2`: 4% and 24.5 nM.
Regarding `Cc1nocc1S(=O)(=O)N1CCc2c(nc(CC(C)(C)C)n2CC2CC2)C1`, the Activity in test [1] came to 9%. Besides, the EC50 in test [2] amounted to 18.5 nM.
For the compound `CN(Cc1ccccc1)C(=O)N1CCc2c(nc(C(C)(C)C)n2CC2CC2)C1`, in test [2], the concentration for a half-maximal effect (EC50) stood at 637 nM.
For the compound `COCCS(=O)(=O)N1CCc2c(nc(C(C)(C)C)n2CC2CC2)C1`, the Activity in test [1] worked out at 25%. In test [2], the EC50 came out at 26.7 nM.
Take `COc1ncc(Br)cc1CN1CCc2c(nc(C(C)(C)C)n2CC2CC2)C1`: the EC50 in test [2] was 295 nM.
In the case of `CC(C)(C)Cc1nc2c(n1CC1CC1)CCN(S(C)(=O)=O)C2`, in test [1], the Activity is 9%. Moreover, the 50% effective concentration (EC50) in test [2] was found to be 439 nM.
With `CCCCCN1CCc2c(nc(C(C)(C)C)n2CC2CC2)C1`, the EC50 in test [2] was determined as 878 nM.
On to `CCCN(C)C(=O)N1CCc2c(nc(C(C)(C)C)n2CC2CC2)C1`, for which the concentration giving a half-maximal response (EC50) in test [2] was determined as 380 nM.
As to `CCCCCCC(C)(C)c1ccc([C@@H]2C[C@H](O)CC[C@H]2CCCO)c(O)c1`, the Activity in test [1] was found to be 100%.
For the compound `CN(Cc1ccccc1)C(=O)N1CCc2c(nc(CC(C)(C)C)n2CC2CC2)C1`, the EC50 in test [2] was 523 nM.
Regarding `CC(C)(C)Cc1nc2c(n1CC1CC1)CCN(S(=O)(=O)Cc1ccccc1)C2`, in test [1], the Activity was determined as 15%. Moreover, in test [2], the concentration giving a half-maximal response (EC50) turned out to be 13.4 nM.
For `CC(C)(C)c1nc2c(n1CC1CC1)CCN(S(=O)(=O)c1cccnc1)C2`, the Activity in test [1] was found to be 11%. Besides, the EC50 in test [2] amounted to 14.2 nM.
